Measurements: patent US20180086749A1, “INHIBITORS OF VIRUSES” (priority 2015, published 2018)

Experiments:
LCMV-ARM = format: cell-based, Lymphocytic Choriomeningitis Virus
[1] = system: HEK-Blue IFN-α/β reporter cells; test: HEK-Blue IFN-α/β cell reporter assay (SEAP); format: cell-based, human
RSV Long = format: cell-based, Respiratory syncytial virus
HEK 293T cells = test: ApoTox-Glo Triplex viability, cytotoxicity, apoptosis assay; details: four days exposure
[2] = system: VEEV TrD (Trinidad donkey); format: cell-based, Venezuelan equine encephalitis virus

CN(C(=O)Cc1sccc1F)c1nc2c(s1)CCCC2 [ML416, 2-(3-fluorothiophen-2-yl)-N-methyl-N-(4,5,6,7-tetrahydro-1,3-benzothiazol-2-yl)acetamide]
Log titer inhibition at 5 μM (LCMV-ARM): −3.466 Log | Log reduction in progeny virus titers (LCMV-ARM; 5 μM): greater than 3 Log | IFN α/β in cell culture supernatant ([1]; HEK 293T supernatant on HEK-Blue IFN-α/β cells): no measurable quantity of IFNs was detected | SEAP activity ([1]; HEK-Blue IFN-α/β cells treated directly, FIG. 6): did not induce SEAP activity | Log titer inhibition at 5 μM (RSV Long): −2.27 ± 0.1 Log | Log titer reduction (RSV Long; 5 μM): ~2 Log | concentration up to which no significant cytotoxicity and apoptosis (HEK 293T cells): up to 25 μM | Log titer inhibition at 5 μM [2]: −4.768 Log
